Experimental data from patent publication US10662225B2, “Backbone cyclized inhibitory peptides of myeloid differentiation factor 88 (MyD88)” (Yissum Research Development Company of the Hebrew …, priority 2016, dated 2020).
Numbered stars: 1 amine (or outer) side, 2 acyl side, 3 side chain; on linkers, the order of the positions; unused ones are H or OH. Bridge positions count the residues as written; N and C are the ends. Square brackets hold non-standard residues; d marks the D form. Peptide text beside a SMILES is read from it. CO = O=C([*:1])[*:2]; Nlys = NCCCCNCC(=O)O

System: OCI-LY3 (MyD88 L265P) cells
Assay: Proliferation of lymphoma cells (Promega CellTiter viability assay)
Assay type: cell-based, human
Conditions: 48 h; compared with OCI-LY19 (MyD88 WT)
Description: FIGS. 18A and 18B. 4×4MyDI and Myr-4×4MyDI block proliferation of Ly3 lymphoma cells that carry the L265P oncogenic mutation in MyD88. Cell lines OCI-LY3 (MyD88^L265P) and OCI-LY19 (MyD88^WT) were grown in RPMI supplemented with 10% FCS. Cells were counted and plated at identical concentrations in triplicate wells of 96 well plates and decreasing concentrations of 4×4MyDI […], or Myr-4×4MyDI (19B), was added to the wells. After 48 h cell viability was tested using the Promega CellTiter viability assay according to the manufacturer's instructions. Percent inhibition was calculated as [(1-OD of well with inhibitor/OD of well without inhibitor)*1001. Negative values in A represent enhanced growth in the presence of the inhibitor.
Genomic DNA was prepared from the human lymphoma cell lines OCI-LY3 (MyD88^L265P) and OCI-LY19 (MyD88^WT) to confirm the presence of the activating L265P mutation in the OCI-Ly3 cells (and the WT sequence in the OCI-Ly19 cells). The MyD88 region was amplified using the forward and reverse primers GGGATATGCTGAACTAAGTTGCCAC (SEQ ID NO: 7) and GACGTGTCTGTGAAGTTGGCATCTC (SEQ ID NO: 8), respectively, as described in Xu, L. et al Blood (2013) 121(11): 2051-2058. The PCR product was sequenced to confirm the mutation.
The cell lines were incubated alone or with increasing concentrations of the 4×4MyDI. […]

CC(C)C[C@@H]1NC(=O)[C@H](C(C)C)NC(=O)[C@H](CC(=O)O)NC(=O)[C@H](CCCNC(=N)N)NC(=O)CN(C(=O)[C@@H](N)Cc2c[nH]c3ccccc23)CCCCNC(=O)NCCCCN(CC(=O)NCC(=O)N[C@H](C(N)=O)[C@@H](C)O)C1=O [4×4MyDI] (H-W[Nlys]RDVL[Nlys]GT-NH2; linker 2-7 via CO; N-terminus assumed)
proliferation of OCI-Ly3 cells: specifically blocked proliferation
